Reference: patent publication US20260049140A1 (Janux Therapeutics, Inc., priority 2023, published 2026)
Read-outs that look alike come from different tables or passages of the source.

Molecular target: wild-type and mutant CD3 binding domains harbored within TROP2 TCE constructs
Experiment: ELISA binding of peptide masks to wild-type and mutated TROP2 TCEs
Details: captured biotinylated peptide or CD3-biotin
[1] = read-out: TCE-3 (3075) (R100A) EC50, binding of TCE-3, anti-CD3 R100A
[2] = read-out: TCE-4 (3076) (H101A) EC50, binding of TCE-4, anti-CD3 H101A
[3] = read-out: TCE-13 (3085) (S110A) EC50, binding of TCE-13, anti-CD3 S110A
[4] = read-out: TCE-14 (3086) (Y111A) EC50, binding of TCE-14, anti-CD3 Y111A
[5] = read-out: TCE-15 (3087) (W112A) EC50, binding of TCE-15, anti-CD3 W112A
[6] = read-out: TCE-19 (3091) (W233A) EC50, binding of TCE-19, anti-CD3 W233A
[7] = read-out: TCE-24 (3096) (W238A) EC50, binding of TCE-24, anti-CD3 W238A
[8] = read-out: TCE-26 (3098) (F240A) EC50, binding of TCE-26, anti-CD3 F240A
[9] = read-out: TCE-7 (3079) (F104A) EC50, binding of TCE-7, anti-CD3 F104A
[10] = read-out: TCE-6 (3078) (N103A) EC50, binding of TCE-6, anti-CD3 N103A

Description: Binding was measured in a standard ELISA format. […] Bound TCEs were detected using a standard horse radish peroxidase conjugate secondary antibody. The ELISA signal was plotted versus the log-scale concentration of TCE. The concentrations of TCE required to observe half maximal binding signal (EC50s) were calculated using Graphpad Prism software.

Compound | EC50 [1] | EC50 [2] | EC50 [3] | EC50 [4] | EC50 [5] | EC50 [6] | EC50 [7] | EC50 [8] | EC50 [9] | EC50 (read-out: TCE-1 (2340) (wt) EC50, binding of TCE-1, wild-type anti-CD3) | EC50 [10] | EC50 (read-out: TCE-27 (3099) EC50, binding of TCE-27) | EC50 (read-out: TCE-28 (3100) EC50, binding of TCE-28)
CSCC[C@H](NC(=O)[C@@H]1CSSC[C@H](NC(=O)[C@H](Cc2ccc(O)cc2)NC(=O)[C@H](C)N)C(=O)NCC(=O)N2CCC[C@H]2C(=O)N[C@@H](CCC(=O)O)C(=O)N[C@@H](Cc2ccccc2)C(=O)N[C@@H](CC(=O)O)C(=O)N[C@@H](CCC(=O)O)C(=O)N[C@@H](CO)C(=O)N[C@@H](C(C)C)C(=O)NCC(=O)N1)C(=O)O [Peptide-8] | 1.85 nM | 1.36 nM | 0.76 nM | 76.9 nM | 11.2 nM | 6.43 nM | 5.66 nM | 5.78 nM |  |  |  |  | 
CC(C)C[C@@H]1NC(=O)[C@@H](NC(=O)[C@H](C)NC(=O)[C@H](CO)NC(=O)CN)CSSC[C@@H](C(=O)N2CCC[C@H]2C(=O)N[C@@H](Cc2ccc(O)cc2)C(=O)O)NC(=O)[C@H](C(C)C)NC(=O)[C@H](CCC(=O)O)NC(=O)[C@H](Cc2c[nH]c3ccccc23)NC(=O)[C@H](CCC(=O)O)NC(=O)[C@@H]2CCCN2C(=O)CNC1=O [Peptide-11] | 0.76 nM | 1.05 nM | 3.82 nM | 95.6 nM | 38.2 nM | 6.26 nM | 7.08 nM | 9.2 nM | 0.88 nM |  |  |  | 
CC(C)C[C@@H]1NC(=O)[C@H](CC(=O)O)NC(=O)[C@H](C(C)C)NC(=O)[C@H](CC(C)C)NC(=O)[C@@H](NC(=O)[C@H](CCC(=O)O)NC(=O)[C@@H](N)CO)CSSC[C@@H](C(=O)N[C@@H](Cc2ccc(O)cc2)C(=O)N[C@@H](Cc2c[nH]c3ccccc23)C(=O)O)NC(=O)[C@@H]2CCCN2C(=O)[C@H](CC(=O)O)NC(=O)[C@H](CO)NC(=O)[C@H](CCC(N)=O)NC1=O [Peptide-5] | 8.73 nM | 6.94 nM | 0.95 nM | 572 nM | 48.2 nM | 0.35 nM | 0.29 nM | 0.76 nM | 1.93 nM | 0.3 nM | 1.69 nM | 0.31 nM | 
CSCC[C@H](NC(=O)[C@@H]1CSSC[C@H](NC(=O)[C@H](Cc2ccc(O)cc2)NC(=O)[C@@H](N)C(C)C)C(=O)NCC(=O)N2CCC[C@H]2C(=O)N[C@@H](CCC(=O)O)C(=O)N[C@@H](Cc2ccccc2)C(=O)N[C@@H](CC(=O)O)C(=O)N[C@@H](CCC(=O)O)C(=O)N[C@@H](CO)C(=O)N[C@@H](C(C)C)C(=O)NCC(=O)N1)C(=O)O [Peptide-3] | 1.76 nM |  | 0.66 nM | 77.7 nM | 10.5 nM | 6.46 nM | 5.96 nM | 5.78 nM |  |  | 0.2 nM |  | 0.41 nM
CC(C)C[C@@H]1NC(=O)[C@@H](NC(=O)[C@H](CCC(N)=O)NC(=O)[C@H](CO)NC(=O)CN)CSSC[C@@H](C(=O)N2CCC[C@H]2C(=O)N[C@@H](Cc2ccc(O)cc2)C(=O)O)NC(=O)[C@H](C(C)C)NC(=O)[C@H](CCC(=O)O)NC(=O)[C@H](Cc2c[nH]c3ccccc23)NC(=O)[C@H](CCC(=O)O)NC(=O)[C@@H]2CCCN2C(=O)CNC1=O [Peptide-2] | 0.58 nM |  | 3.65 nM | 49.1 nM | 26.4 nM | 6.28 nM | 6.34 nM | 8.02 nM | 0.63 nM |  |  |  | 
CC(C)C[C@@H]1NC(=O)[C@@H](NC(=O)[C@H](CCC(N)=O)NC(=O)[C@H](CO)NC(=O)[C@H](C)N)CSSC[C@@H](C(=O)N2CCC[C@H]2C(=O)N[C@@H](Cc2ccc(O)cc2)C(=O)O)NC(=O)[C@H](C(C)C)NC(=O)[C@H](CCC(=O)O)NC(=O)[C@H](Cc2c[nH]c3ccccc23)NC(=O)[C@H](CCC(=O)O)NC(=O)[C@@H]2CCCN2C(=O)CNC1=O [Peptide-10] | 0.68 nM | 0.83 nM | 3.46 nM | 64.2 nM | 23.4 nM | 5.47 nM | 5.33 nM | 5.9 nM | 0.66 nM |  | 0.36 nM |  | 
